Experimental data from US12492181B2, “Gem-disubstituted piperidine melanocortin subtype-2 receptor (MC2R) antagonists and uses thereof” (Crinetics Pharmaceuticals, Inc., priority 2019, dated 2025).
pKi: −log10 of the molar value.

Target: T1, hMC2 receptor (crude hMC2R membranes from CRE-bla-CHO-K1 cells stably expressing hMC2 receptor and hMRAP accessory protein) (Homo sapiens, UniProt Q01718)
T1 construct: crude membrane fractions
Assay: hMC2 membrane binding assay ([125I]ACTH (1-39) Tyr23, SPA)
Conditions: displacement of 0.2 nM [125I]ACTH (1-39) Tyr23 from hMC2R membranes, 1.5 hours at room temperature; read-out: MC2R binding potency
Procedure, shortened: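 Crude membranes from CRE-bla-CHO-K1 cells stably co-expressing hMC2R and hMRAP, premixed with WGA PVT SPA beads in pH 7.4 HEPES buffer (5 mM MgCl2, 1 mM CaCl2, 0.20% BSA, protease inhibitors). Compounds compete with [125I]ACTH(1-39) Tyr23, read by scintillation. Ki from non-linear regression.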

T1 sequence (Q01718 whole entry): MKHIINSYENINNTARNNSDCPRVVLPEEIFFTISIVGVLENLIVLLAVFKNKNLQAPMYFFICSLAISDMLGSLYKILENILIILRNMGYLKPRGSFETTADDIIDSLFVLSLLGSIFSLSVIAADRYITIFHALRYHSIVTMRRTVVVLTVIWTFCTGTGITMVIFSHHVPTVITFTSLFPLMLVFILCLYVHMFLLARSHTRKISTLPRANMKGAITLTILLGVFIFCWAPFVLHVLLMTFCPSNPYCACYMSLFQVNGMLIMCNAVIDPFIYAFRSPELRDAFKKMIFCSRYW
T1 sequence (Q8TCY5 whole entry partner): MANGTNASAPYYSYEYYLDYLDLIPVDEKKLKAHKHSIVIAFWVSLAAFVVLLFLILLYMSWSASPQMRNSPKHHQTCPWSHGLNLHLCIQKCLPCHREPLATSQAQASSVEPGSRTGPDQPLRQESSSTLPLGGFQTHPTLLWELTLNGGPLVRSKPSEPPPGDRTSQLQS

Row | Structure (SMILES) | pKi
1 | COc1ncccc1-c1ccc(C2(C(=O)N[C@@H]3CCN(C)C3)CCN(c3ccc(C(F)(F)F)cc3C#N)CC2)cn1 [Compound 1-98, 1-[2-cyano-4-(trifluoromethyl)phenyl]-4-{2′-methoxy-[2,3′-bipyridin]-5-yl}-N-[(3R)-1-methylpyrrolidin-3-yl]piperidine-4-carboxamide] | > 8.00
2 | CCOc1ncccc1-c1ccc(C2(C(=O)N[C@H]3CCN(C)C3)CCN(c3ccc(C(F)(F)F)cn3)CC2)cn1 [Compound 1-35, 4-{2′-ethoxy-[2,3′-bipyridin]-5-yl}-N-[(3S)-1-methylpyrrolidin-3-yl]-1-[5-(trifluoromethyl)pyridin-2-yl]piperidine-4-carboxamide] | > 8.00
3 | COc1ccccc1-c1ccc(C2(C(=O)N[C@@H]3CN4CCC3CC4)CCN(c3ccc(C(F)(F)F)cc3C#N)CC2)cn1 [Compound 1-218, N-[(3S)-1-azabicyclo[2.2.2]octan-3-yl]-1-[2-cyano-4-(trifluoromethyl)phenyl]-4-[6-(2-methoxyphenyl)pyridin-3-yl]piperidine-4-carboxamide] | > 8.00
4 | CCOc1ccccc1-c1ccc(C2(C(=O)NCCNC)CCN(c3ccc(C(F)(F)F)cc3Cl)CC2)cn1 [Compound 1-230, 1-[2-chloro-4-(trifluoromethyl)phenyl]-4-[6-(2-ethoxyphenyl)pyridin-3-yl]-N-[2-(methylamino)ethyl]piperidine-4-carboxamide] | > 8.00
5 | CN1CC[C@@H](NC(=O)C2(c3ccc(-c4ccc(C#N)n4C)nc3)CCN(c3ccc(C(F)(F)F)cc3C#N)CC2)C1 [Compound 1-153, 4-[6-(5-cyano-1-methyl-1H-pyrrol-2-yl)pyridin-3-yl]-1-[2-cyano-4-(trifluoromethyl)phenyl]-N-[(3R)-1-methylpyrrolidin-3-yl]piperidine-4-carboxamide] | 7.00 to 8.00
6 | CCc1ccccc1-c1ccc(C2(C(=O)N[C@@H]3CCN(C)C3)CCN(c3ccc(C(F)(F)F)cc3C#N)CC2)cn1 [Compound 1-60, 1-[2-cyano-4-(trifluoromethyl)phenyl]-4-[6-(2-ethylphenyl)pyridin-3-yl]-N-[(3R)-1-methylpyrrolidin-3-yl]piperidine-4-carboxamide] | > 8.00
7 | COc1ccc(F)cc1-c1ccc(C2(C(=O)N[C@H]3CCN(C)C3)CCN(c3ccc(C(F)(F)F)cc3Cl)CC2)cn1 [Compound 1-155, 1-[2-chloro-4-(trifluoromethyl)phenyl]-4-[6-(5-fluoro-2-methoxyphenyl)pyridin-3-yl]-N-[(3S)-1-methylpyrrolidin-3-yl]piperidine-4-carboxamide] | > 8.00
8 | CCOc1ncccc1-c1ccc(C2(C(=O)NCCN(C)C)CCN(c3ccc(C(F)(F)F)cc3F)CC2)nn1 [Compound 1-335, N-[2-(dimethylamino)ethyl]-4-[6-(2-ethoxypyridin-3-yl)pyridazin-3-yl]-1-[2-fluoro-4-(trifluoromethyl)phenyl]piperidine-4-carboxamide] | > 8.00
9 | CCOc1ncccc1-c1ccc(C2(C(=O)N[C@@H]3CCN(C)C3)CCN(c3ccc(C(F)(F)F)cc3C#N)CC2)cc1 [Compound 1-1, 1-[2-cyano-4-(trifluoromethyl)phenyl]-4-[4-(2-ethoxypyridin-3-yl)phenyl]-N-[(3R)-1-methylpyrrolidin-3-yl]piperidine-4-carboxamide] | > 8.00
10 | CCc1sccc1-c1ccc(C2(C(=O)N[C@H]3CCN(C)C3)CCN(c3ccc(C(F)(F)F)cc3C#N)CC2)cn1 [Compound 1-147, 1-[2-cyano-4-(trifluoromethyl)phenyl]-4-[6-(2-ethylthiophen-3-yl)pyridin-3-yl]-N-[(3S)-1-methylpyrrolidin-3-yl]piperidine-4-carboxamide] | > 8.00
11 | Cn1cccc1-c1ccc(C2(C(=O)N[C@@H]3C[C@H]3N)CCN(c3ccc(C(F)(F)F)cc3C#N)CC2)cn1 (racemic) [Compound 1-259, rac-N-[(1R,2R)-2-aminocyclopropyl]-1-[2-cyano-4-(trifluoromethyl)phenyl]-4-[6-(1-methyl-1H-pyrrol-2-yl)pyridin-3-yl]piperidine-4-carboxamide] | 7.00 to 8.00
12 | CCOc1ccccc1-c1ccc(C2(C(=O)NC3CN(C)C3)CCN(c3ccc(C(F)(F)F)cc3C#N)CC2)nn1 [Compound 1-136, 1-[2-cyano-4-(trifluoromethyl)phenyl]-4-[6-(2-ethoxyphenyl)pyridazin-3-yl]-N-(1-methylazetidin-3-yl)piperidine-4-carboxamide] | > 8.00
13 | CCOc1ncccc1-c1ccc(C2(C(=O)N[C@H]3CCN(C)C3)CCN(c3ccc(C(F)(F)F)nc3C#N)CC2)cn1 [Compound 1-26, 1-[2-cyano-6-(trifluoromethyl)pyridin-3-yl]-4-{2′-ethoxy-[2,3′-bipyridin]-5-yl}-N-[(3S)-1-methylpyrrolidin-3-yl]piperidine-4-carboxamide] | > 8.00
14 | CN1CC[C@H](NC(=O)NC2(c3ccc(-c4cccn4C)nc3)CCN(c3ccc(C(F)(F)F)cc3C#N)CC2)C1 [Compound 2-43, 1-{1-[2-cyano-4-(trifluoromethyl)phenyl]-4-[6-(1-methyl-1H-pyrrol-2-yl)pyridin-3-yl]piperidin-4-yl}-3-[(3S)-1-methylpyrrolidin-3-yl]urea] | > 8.00
15 | CC(=O)c1sccc1-c1ccc(C2(C(=O)N[C@H]3CCN(C)C3)CCN(c3ccc(C(F)(F)F)cc3C#N)CC2)cn1 [Compound 1-146, 4-[6-(2-acetylthiophen-3-yl)pyridin-3-yl]-1-[2-cyano-4-(trifluoromethyl)phenyl]-N-[(3S)-1-methylpyrrolidin-3-yl]piperidine-4-carboxamide] | > 8.00
16 | CCOc1ccccc1-c1ccc(C2(NC(=O)CCN(C)C)CCN(c3ccc(Cl)cc3C#N)CC2)cn1 [Compound 2-30, N-[1-(4-chloro-2-cyanophenyl)-4-[6-(2-ethoxyphenyl)pyridin-3-yl]piperidin-4-yl]-3-(dimethylamino)propanamide] | > 8.00
17 | CCOc1ncccc1-c1ccc(C2(C(=O)NCCN(C)C)CCN(c3ccc(C(F)(F)F)cc3F)CC2)cn1 [Compound 1-222, N-[2-(dimethylamino)ethyl]-4-{2′-ethoxy-[2,3′-bipyridin]-5-yl}-1-[2-fluoro-4-(trifluoromethyl)phenyl]piperidine-4-carboxamide] | > 8.00
18 | CCOc1ncccc1-c1ccc(C2(NC(=O)N3CC[C@@H](NC)C3)CCN(c3ccc(C(F)(F)F)cc3C#N)CC2)cn1 [Compound 2-21] | > 8.00
19 | CCOc1ncccc1-c1ccc(C2(C(=O)N[C@@H]3CCN(C)C3)CCN(c3ccc(C(F)(F)F)c(Cl)c3)CC2)cc1 [Compound 1-165, 1-[3-chloro-4-(trifluoromethyl)phenyl]-4-[4-(2-ethoxypyridin-3-yl)phenyl]-N-[(3R)-1-methylpyrrolidin-3-yl]piperidine-4-carboxamide] | 7.00 to 8.00
20 | CCOc1ccccc1-c1ncc(C2(C(=O)N[C@H]3CCN(C)C3)CCN(c3ccc(C(F)(F)F)cc3Cl)CC2)cc1F [Compound 1-202, 1-[2-chloro-4-(trifluoromethyl)phenyl]-4-[6-(2-ethoxyphenyl)-5-fluoropyridin-3-yl]-N-[(3S)-1-methylpyrrolidin-3-yl]piperidine-4-carboxamide] | > 8.00
21 | COc1ncccc1-c1ncc(C2(C(=O)N[C@H]3CCN(C)C3)CCN(c3ccc(C(F)(F)F)cc3C#N)CC2)cc1F [Compound 1-132, 1-[2-cyano-4-(trifluoromethyl)phenyl]-4-{3-fluoro-2′-methoxy-[2,3′-bipyridin]-5-yl}-N-[(3S)-1-methylpyrrolidin-3-yl]piperidine-4-carboxamide] | > 8.00
22 | CCOc1ncccc1-c1ccc(C2(C(=O)N[C@@H]3CN4CCC3CC4)CCN(c3ccc(C(F)(F)F)cc3C#N)CC2)cn1 [Compound 1-20, N-[(3S)-1-azabicyclo[2.2.2]octan-3-yl]-1-[2-cyano-4-(trifluoromethyl)phenyl]-4-{2′-ethoxy-[2,3′-bipyridin]-5-yl}piperidine-4-carboxamide] | > 8.00
23 | CCc1ncccc1-c1ccc(C2(C(=O)N[C@H]3CCN(C)C3)CCN(c3ccc(C(F)(F)F)cc3Cl)CC2)cn1 [Compound 1-172, 1-[2-chloro-4-(trifluoromethyl)phenyl]-4-{2′-ethyl-[2,3′-bipyridin]-5-yl}-N-[(3S)-1-methylpyrrolidin-3-yl]piperidine-4-carboxamide] | > 8.00
24 | CCOc1ncccc1-c1ccc(C2(C(=O)N[C@@H](C)CN(C)C)CCN(c3ccc(C(F)(F)F)cc3F)CC2)cn1 [Compound 1-317, N-[(2S)-1-(dimethylamino)propan-2-yl]-4-{2′-ethoxy-[2,3′-bipyridin]-5-yl}-1-[2-fluoro-4-(trifluoromethyl)phenyl]piperidine-4-carboxamide] | > 8.00
25 | CCOc1ncccc1-c1ccc(C2(C(=O)N[C@@H](C)CNC)CCN(c3ccc(C(F)(F)F)cc3F)CC2)cn1 [Compound 1-321, 4-{2′-ethoxy-[2,3′-bipyridin]-5-yl}-1-[2-fluoro-4-(trifluoromethyl)phenyl]-N-[(2S)-1-(methylamino)propan-2-yl]piperidine-4-carboxamide] | > 8.00
26 | CN1CC[C@](C)(NC(=O)C2(c3ccc(-c4cccn4C)nc3)CCN(c3ccc(C(F)(F)F)cc3C#N)CC2)C1 [Compound 1-253, 1-[2-cyano-4-(trifluoromethyl)phenyl]-N-[(3S)-1,3-dimethylpyrrolidin-3-yl]-4-[6-(1-methyl-1H-pyrrol-2-yl)pyridin-3-yl]piperidine-4-carboxamide] | > 8.00
27 | CNCCC(=O)NC1(c2cnc(-c3ccccc3OC)c(F)c2)CCN(c2ccc(C(F)(F)F)cc2C#N)CC1 [Compound 2-63, N-{1-[2-cyano-4-(trifluoromethyl)phenyl]-4-[5-fluoro-6-(2-methoxyphenyl)pyridin-3-yl]piperidin-4-yl}-3-(methylamino)propanamide] | > 8.00
